Conditions: 25.0 °C

SMILES | log10 OH rate constant (cm³/molecule/s)
Clc1ccc(-c2cc(Cl)ccc2Cl)cc1 | -11.9
Clc1c(Cl)c(Cl)c(-c2ccccc2)c(Cl)c1Cl | -12
Clc1cc(Cl)c(-c2ccccc2)cc1Cl | -11.9
Clc1ccc(-c2ccc(Cl)cc2Cl)c(Cl)c1 | -12
Clc1ccc(-c2ccccc2Cl)cc1Cl | -12
Clc1ccc(-c2c(Cl)ccc(Cl)c2Cl)cc1Cl | -12.2
Clc1ccc(Cl)c(-c2cccc(Cl)c2Cl)c1 | -12.1
Clc1ccc(-c2ccc(Cl)cc2Cl)cc1 | -12
Clc1ccc(-c2ccccc2)c(Cl)c1 | -11.6
Clc1ccc(Cl)c(-c2c(Cl)ccc(Cl)c2Cl)c1 | -12.4

Reference: the OPERA property sets (Mansouri et al. 2018)
